Source: PMC7156458, “Synthetic biology based construction of biological activity-related library of fungal decalin-containing diterpenoid pyrones” (Nature Communications, 2020)

Target: Aβ42 (Homo sapiens, UniProt P05067)
Test: Th-T (thioflavin-T) assay of Aβ42 aggregation
Type: biochemical
Conditions: for Th-T fluorescence, mean of three wells: Aβ42 aggregation time course

Sequence of Aβ42 (P05067 672-713): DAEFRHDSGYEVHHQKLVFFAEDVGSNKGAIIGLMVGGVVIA

C=C1CC[C@@H]2[C@](C)(CC[C@H]3O[C@H](C=C(C)C)C[C@@]23C)[C@@H]1Cc1c(OC)oc(CO)c(C)c1=O [Compound 20]
delay of the nucleation phase: no delay | elongation of Aβ42: partly suppressed the elongation of Aβ42 | first Th-T assay result (Aβ42 (10 μM) ± DPPs (20 μM), room temperature): slightly suppressed | Th-T fluorescence, mean of three wells (reading M117): 4.214 | Th-T fluorescence, mean of three wells (reading M118): 4.194 | Th-T fluorescence, mean of three wells (reading M119): 4.178 | Th-T fluorescence, mean of three wells (reading M120): 4.1845 | Th-T fluorescence, mean of three wells (reading M121): 4.166 | Th-T fluorescence, mean of three wells (reading M122): 4.139 | Th-T fluorescence, mean of three wells (reading M123): 4.16 | Th-T fluorescence, mean of three wells (reading M124): 4.194 | Th-T fluorescence, mean of three wells (reading M125): 4.155 | Th-T fluorescence, mean of three wells (reading M126): 4.13 | Th-T fluorescence, mean of three wells (reading M127): 4.172 | Th-T fluorescence, mean of three wells (reading M128): 4.137 | Th-T fluorescence, mean of three wells (reading M129): 4.1254 | Th-T fluorescence, mean of three wells (reading M130): 4.128 | Th-T fluorescence, mean of three wells (Fig. 7a) (column suffix _10, measurement M19): 3.317 | Th-T fluorescence, mean of three wells (Fig. 7a) (column suffix _10, measurement M20): 3.391 | Th-T fluorescence, mean of three wells (Fig. 7a) (column suffix _10, measurement M21): 3.434 | Th-T fluorescence, mean of three wells (Fig. 7a) (column suffix _10, measurement M22): 3.448 | Th-T fluorescence, mean of three wells (Fig. 7a) (column suffix _10, measurement M23): 3.464 | Th-T fluorescence, mean of three wells (Fig. 7a) (column suffix _10, measurement M24): 3.465 | Th-T fluorescence, mean of three wells (Fig. 7a) (column suffix _10, measurement M25): 3.454 | Th-T fluorescence, mean of three wells (Fig. 7a) (column suffix _10, measurement M26): 3.452 | Th-T fluorescence, mean of three wells (Fig. 7a) (column suffix _10, measurement M27): 3.468 | Th-T fluorescence, mean of three wells (Fig. 7a) (column suffix _10, measurement M28): 3.469 | Th-T fluorescence, mean of three wells (Fig. 7a) (column suffix _10, measurement M29): 3.45 | Th-T assay signal, mean of three wells (Fig. 7a) (column suffix _10, reading M1): 0.2292 | Th-T assay signal, mean of three wells (Fig. 7a) (column suffix _10, reading M2): 0.2545 | Th-T assay signal, mean of three wells (Fig. 7a) (column suffix _10, reading M3): 0.2762 | Th-T assay signal, mean of three wells (Fig. 7a) (column suffix _10, reading M4): 0.324 | Th-T assay signal, mean of three wells (Fig. 7a) (column suffix _10, reading M5): 0.3535 | Th-T assay signal, mean of three wells (Fig. 7a) (column suffix _10, reading M6): 0.4731 | Th-T assay signal, mean of three wells (Fig. 7a) (column suffix _10, reading M7): 0.5173 | Th-T assay signal, mean of three wells (Fig. 7a) (column suffix _10, reading M8): 0.5644 | Th-T assay signal, mean of three wells (Fig. 7a) (column suffix _10, reading M9): 0.6382 | Th-T assay signal, mean of three wells (Fig. 7a) (column suffix _10, reading M10): 0.6392 | Th-T assay signal, mean of three wells (Fig. 7a) (column suffix _10, reading M11): 0.7204 | Th-T assay signal, mean of three wells (Fig. 7a) (column suffix _10, reading M12): 0.8506 | Th-T assay signal, mean of three wells (Fig. 7a) (column suffix _10, reading M13): 1.108 | Th-T assay signal, mean of three wells (Fig. 7a) (column suffix _10, reading M14): 1.585 | Th-T assay signal, mean of three wells (Fig. 7a) (column suffix _10, reading M15): 2.1202 | Th-T assay signal, mean of three wells (Fig. 7a) (column suffix _10, reading M16): 2.635 | Th-T assay signal, mean of three wells (Fig. 7a) (column suffix _10, reading M17): 2.976 | Th-T assay signal, mean of three wells (Fig. 7a) (column suffix _10, reading M18): 3.206 | Fig. 7a Th-T reading, mean of three wells (column suffix _10, reading M85): 3.354 | Fig. 7a Th-T reading, mean of three wells (column suffix _10, reading M86): 3.35 | Fig. 7a Th-T reading, mean of three wells (column suffix _10, reading M87): 3.36 | Fig. 7a Th-T reading, mean of three wells (column suffix _10, reading M88): 3.344 | Fig. 7a Th-T reading, mean of three wells (column suffix _10, reading M89): 3.359 | Fig. 7a Th-T reading, mean of three wells (column suffix _10, reading M90): 3.344 | Fig. 7a Th-T reading, mean of three wells (column suffix _10, reading M91): 3.334 | Fig. 7a Th-T reading, mean of three wells (column suffix _10, reading M92): 3.329 | Fig. 7a Th-T reading, mean of three wells (column suffix _10, reading M93): 3.316 | Fig. 7a Th-T reading, mean of three wells (column suffix _10, reading M94): 3.328 | Fig. 7a Th-T reading, mean of three wells (column suffix _10, reading M95): 3.309 | Fig. 7a Th-T reading, mean of three wells (column suffix _10, reading M96): 3.312 | Fig. 7a Th-T reading, mean of three wells (column suffix _10, reading M97): 3.295 | Fig. 7a Th-T reading, mean of three wells (column suffix _10, reading M98): 3.318 | Fig. 7a Th-T reading, mean of three wells (column suffix _10, reading M99): 3.3 | Fig. 7a Th-T reading, mean of three wells (column suffix _10, reading M100): 3.294 | Fig. 7a Th-T reading, mean of three wells (column suffix _10, reading M101): 3.313 | Fig. 7a Th-T reading, mean of three wells (column suffix _10, reading M102): 3.28 | Fig. 7a Th-T reading, mean of three wells (column suffix _10, reading M103): 3.294 | Fig. 7a Th-T reading, mean of three wells (column suffix _10, reading M104): 3.29 | Fig. 7a Th-T reading, mean of three wells (column suffix _10, reading M105): 3.266 | Fig. 7a Th-T reading, mean of three wells (column suffix _10, reading M106): 3.268 | Th-T fluorescence, mean of three wells (Fig. 7a) (column suffix _20, measurement M19): 3.146 | Th-T fluorescence, mean of three wells (Fig. 7a) (column suffix _20, measurement M20): 3.22 | Th-T fluorescence, mean of three wells (Fig. 7a) (column suffix _20, measurement M21): 3.265 | Th-T fluorescence, mean of three wells (Fig. 7a) (column suffix _20, measurement M22): 3.294 | Th-T fluorescence, mean of three wells (Fig. 7a) (column suffix _20, measurement M23): 3.285 | Th-T fluorescence, mean of three wells (Fig. 7a) (column suffix _20, measurement M24): 3.3066 | Th-T fluorescence, mean of three wells (Fig. 7a) (column suffix _20, measurement M25): 3.328 | Th-T fluorescence, mean of three wells (Fig. 7a) (column suffix _20, measurement M26): 3.367 | Th-T fluorescence, mean of three wells (Fig. 7a) (column suffix _20, measurement M27): 3.353 | Th-T fluorescence, mean of three wells (Fig. 7a) (column suffix _20, measurement M28): 3.346 | Th-T fluorescence, mean of three wells (Fig. 7a) (column suffix _20, measurement M29): 3.34 | Th-T fluorescence, mean of three wells (Fig. 7a) (column suffix _20, measurement M30): 3.361 | Th-T assay signal, mean of three wells (Fig. 7a) (column suffix _20, reading M1): 0.2139 | Th-T assay signal, mean of three wells (Fig. 7a) (column suffix _20, reading M2): 0.2391 | Th-T assay signal, mean of three wells (Fig. 7a) (column suffix _20, reading M3): 0.2688 | Th-T assay signal, mean of three wells (Fig. 7a) (column suffix _20, reading M4): 0.2877 | Th-T assay signal, mean of three wells (Fig. 7a) (column suffix _20, reading M5): 0.33 | Th-T assay signal, mean of three wells (Fig. 7a) (column suffix _20, reading M6): 0.4061 | Th-T assay signal, mean of three wells (Fig. 7a) (column suffix _20, reading M7): 0.4716 | Th-T assay signal, mean of three wells (Fig. 7a) (column suffix _20, reading M8): 0.5038 | Th-T assay signal, mean of three wells (Fig. 7a) (column suffix _20, reading M9): 0.5302 | Th-T assay signal, mean of three wells (Fig. 7a) (column suffix _20, reading M10): 0.5653 | Th-T assay signal, mean of three wells (Fig. 7a) (column suffix _20, reading M11): 0.6147 | Th-T assay signal, mean of three wells (Fig. 7a) (column suffix _20, reading M12): 0.7691 | Th-T assay signal, mean of three wells (Fig. 7a) (column suffix _20, reading M13): 1.152 | Th-T assay signal, mean of three wells (Fig. 7a) (column suffix _20, reading M14): 1.832 | Th-T assay signal, mean of three wells (Fig. 7a) (column suffix _20, reading M15): 2.436 | Th-T assay signal, mean of three wells (Fig. 7a) (column suffix _20, reading M16): 2.813 | Th-T assay signal, mean of three wells (Fig. 7a) (column suffix _20, reading M17): 2.993 | Th-T assay signal, mean of three wells (Fig. 7a) (column suffix _20, reading M18): 3.081 | Fig. 7a Th-T reading, mean of three wells (column suffix _20, reading M85): 3.286 | Fig. 7a Th-T reading, mean of three wells (column suffix _20, reading M86): 3.29 | Fig. 7a Th-T reading, mean of three wells (column suffix _20, reading M87): 3.2956 | Fig. 7a Th-T reading, mean of three wells (column suffix _20, reading M88): 3.332 | Fig. 7a Th-T reading, mean of three wells (column suffix _20, reading M89): 3.367 | Fig. 7a Th-T reading, mean of three wells (column suffix _20, reading M90): 3.341 | Fig. 7a Th-T reading, mean of three wells (column suffix _20, reading M91): 3.299 | Fig. 7a Th-T reading, mean of three wells (column suffix _20, reading M92): 3.303 | Fig. 7a Th-T reading, mean of three wells (column suffix _20, reading M93): 3.313 | Fig. 7a Th-T reading, mean of three wells (column suffix _20, reading M94): 3.332 | Fig. 7a Th-T reading, mean of three wells (column suffix _20, reading M95): 3.309 | Fig. 7a Th-T reading, mean of three wells (column suffix _20, reading M96): 3.268 | Fig. 7a Th-T reading, mean of three wells (column suffix _20, reading M97): 3.26 | Fig. 7a Th-T reading, mean of three wells (column suffix _20, reading M98): 3.269 | Fig. 7a Th-T reading, mean of three wells (column suffix _20, reading M99): 3.3 | Fig. 7a Th-T reading, mean of three wells (column suffix _20, reading M100): 3.292
